The values that follow come from patent US11053235B2, “Substituted 1,4-dihydropyrimidines for the treatment of HBV infection or HBV-induced diseases” (Janssen Sciences Ireland Unlimited Company, priority 2018, dated 2021).

Each structure is given as a SMILES string. Bounds are passed on as bounds.

A word on the EC50: it is the concentration at which the effect is half-maximal. A word on the CC50: it is the concentration giving 50% cytotoxicity. A higher CC50 goes with lower toxicity to the cells.

Data set [1] concerns HBV. The data set can be described thus: Anti-viral assay in HepG2.2.15 cells: HBV inhibitory activity (HBV DNA in culture medium by q-PCR). The class given is cell-based. Particulars: Hepatitis B virus, HepG2.2.15, 144 h, HepG2.2.15 cells, 6 days treatment, HBV DNA in culture medium by q-PCR, highest concentration 10 uM; read-out: EC50. The source says: (§1) Example 2: Anti-Viral Assay in HepG2.2.15 Cells
(§2) 1.1. Cell Line • HepG2.2.15 (the HepG2.2.15 cell line can be produced by transfection of the HepG2 cell line as described in Sells, Chen, and Acs 1987 (Proc. Natl. Acad. Sci. USA 84:1005-1009), and the HepG2 cell line is available from ATCC® under number HB-8065™). Reagents • DMEM/F12 (INVITROGEN-11330032) • FBS (GIBCO-10099-141) • Dimethyl sulfoxide(DMSO) (SIGMA-D2650) • Penicillin-streptomycin solution (HYCLONE-SV30010) • NEAA (INVITROGEN-1114050) • L-Glutamine (INVITROGEN-25030081) • Geneticin Selective Antibiotic (G418, 500 mg/ml) (INVITROGEN-10131027) • Trypsinase digestion solution (INVITROGEN-25300062) • CCK8 (BIOLOTE-35004) • QIAamp 96 DNA Blood Kit (12) (QIAGEN-51162) • FastStart Universal Probe Mast Mix (ROCHE-04914058001)
(§3) 2.1. HBV Inhibitory Activity and Cytotoxicity Determination
(§4) Seed the cell HepG2.2.15 cells into 96-well plate in 2% FBS culture medium at the density of 40,000 cells/well and 5,000 cells/well for HBV inhibitory activity and cytotoxicity determination, respectively. After seeding, incubate the cell plates at 37° C., 5% CO2 overnight. The next day, medium containing compounds is added to the cell to treat the cells for 6 days with medium refreshed once in the middle of the treatment. 8 dose points with 3 folds dilution of each compound were adopted and the highest concentration of the compounds is 10 uM and 100 uM for HBV inhibitory activity and cytotoxicity determination, respectively.
The HBV DAN change in the cell culture medium induced by the compounds is measured by q-PCR method. Briefly, the HBV DNA in the culture medium is extracted using QIAamp 96 DNA Blood Kit according to the manual and then quantified by q-PCR using the primers and probe in the table below.
(§5) EC50 and CC50 values are calculated by the GRAPHPAD PRISM software.

Data set [2] is described as follows: Cytotoxicity determination in HepG2.2.15 cells (CCK-8). The class given is cell-based. Particulars: human, 6 days treatment, CCK-8, highest concentration 100 uM.
Description: as §1, §2, §3, §4
After 6 days of compounds treatment, add 20 μl CCK-8 reagents to each well of cytotoxicity assay plates, incubate the plate at 37° C., 5% CO2 for 2.5 h and measure the absorbance at 450 nm wavelength, at the same time read the absorbance at 630 nm wavelength as reference.
as §5

On to `CCOC(=O)C1=C([C@H]2CC[C@H](Cc3nc(C(=O)O)co3)CC2)NC(c2nccs2)=NC1c1ccc(F)c(F)c1Cl` (single isomer, unassigned) [Compound I-15-A, (trans)-2-((4-(6-(2-chloro-3,4-difluorophenyl)-5-(ethoxycarbonyl)-2-(thiazol-2-yl)-3,6-dihydropyrimidin-4-yl)cyclohexyl)methyl)oxazole-4-carboxylic Acid], for which the EC50 in data set [1] stood at 66 nM. The compound also returned a CC50 at 6 days in data set [2] of 6270 nM. As to `CCOC(=O)C1=C([C@H]2CC[C@H](c3cnn(C(C)(C)CC(=O)O)c3)CC2)NC(c2nccs2)=NC1c1ccc(F)c(F)c1Cl` (single isomer, unassigned) [Compound I-30-D], in data set [1], the concentration giving a half-maximal response (EC50) came out at 26 nM. The same compound yielded a CC50 at 6 days in data set [2] of 1160 nM. For `COC(=O)C1=C([C@H]2CC[C@H](c3nc(C(=O)O)co3)CC2)NC(c2nccs2)=NC1c1ccc(F)c(F)c1Cl` (single isomer, unassigned) [Compound I-1-C, (trans)-2-(4-(6-(2-Chloro-3,4-difluorophenyl)-5-(methoxycarbonyl)-2-(thiazol-2-yl)-3,6-dihydropyrimidin-4-yl)cyclohexyl)oxazole-4-carboxylic Acid] the same measures were 7.5 nM and 13600 nM. The corresponding values for `CCOC(=O)C1=C(C2CCN(c3cc(C)c(C(=O)O)nn3)CC2)NC(c2nccs2)=NC1c1ccc(F)c(F)c1Cl` (single isomer, unassigned) [II-46-B, 6-(4-(6-(2-Chloro-3,4-difluorophenyl)-5-(ethoxycarbonyl)-2-(thiazol-2-yl)-3,6-dihydropyrimidin-4-yl)piperidin-1-yl)-4-methylpyridazine-3-carboxylic Acid] are 100 nM and 3670 nM. `CCOC(=O)C1=C(C2CCC(c3cnn(C(C)CC(=O)O)c3)CC2)NC(c2nccs2)=NC1c1ccc(F)c(F)c1Cl` (centres unmarked) [Compound I-31, 3-(4-(4-(6-(2-Chloro-3,4-difluorophenyl)-5-(ethoxycarbonyl)-2-(thiazol-2-yl)-3,6-dihydropyrimidin-4-yl)cyclohexyl)-1H-pyrazol-1-yl)butanoic Acid]: the EC50 in data set [1] was 59 nM. The same compound came in with a CC50 at 6 days in data set [2] of 3780 nM.

For `COC(=O)C1=C([C@H]2CC[C@H](c3nc(C(=O)O)co3)CC2)NC(c2nccs2)=NC1c1ccc(F)cc1Cl` (single isomer, unassigned) [Compound I-4-B, (trans)-2-(4-(6-(2-Chloro-4-fluorophenyl)-5-(methoxycarbonyl)-2-(thiazol-2-yl)-3,6-dihydropyrimidin-4-yl)cyclohexyl)oxazole-4-carboxylic Acid], the EC50 in data set [1] was found to be 11 nM. In data set [2], this compound displayed a CC50 at 6 days of 16400 nM.

For `CCOC(=O)C1=C([C@H]2CC[C@H](c3nc(C(=O)O)co3)CC2)NC(c2nccs2)=NC1c1ccc(F)cc1Cl` (single isomer, unassigned) [Compound I-10-C, (trans)-2-(4-(6-(2-Chloro-4-fluorophenyl)-5-(ethoxycarbonyl)-2-(thiazol-2-yl)-3,6-dihydropyrimidin-4-yl)cyclohexyl)oxazole-4-carboxylic Acid], the EC50 in data set [1] turned out to be 22 nM. In data set [2], the CC50 at 6 days amounted to 7640 nM.

For `COC(=O)C1=C([C@H]2CC[C@H](c3nc(CC(=O)O)co3)CC2)NC(c2nccs2)=NC1c1ccc(F)c(F)c1Cl` (single isomer, unassigned) [Compound I-16-B, (trans)-2-(2-(4-(6-(2-Chloro-3,4-difluorophenyl)-5-(methoxycarbonyl)-2-(thiazol-2-yl)-3,6-dihydropyrimidin-4-yl)cyclohexyl)oxazol-4-yl)acetic Acid], the EC50 in data set [1] came to 4.8 nM. The CC50 at 6 days in data set [2] is 12400 nM. On to `COC(=O)C1=C(C2CCN(c3ccc(CCC(=O)O)cn3)CC2)NC(c2nccs2)=NC1c1ccc(F)cc1Cl` (single isomer, unassigned) [II-101-B, 3-(6-(4-(6-(2-Chloro-4-fluorophenyl)-5-(methoxycarbonyl)-2-(thiazol-2-yl)-3,6-dihydropyrimidin-4-yl)piperidin-1-yl)pyridin-3-yl)propanoic Acid], for which, in data set [1], the EC50 is < 4.6 nM. Half-maximal cytotoxicity in data set [2] (CC50 at 6 days) was put at 16600 nM. For `CCOC(=O)C1=C([C@H]2CC[C@H](c3nc(C(C)(C)C(=O)O)co3)CC2)NC(c2nccs2)=NC1c1ccc(F)c(F)c1Cl` (single isomer, unassigned) [Compound I-27-B, (trans)-2-(2-(4-(6-(2-chloro-3,4-difluorophenyl)-5-(ethoxycarbonyl)-2-(thiazol-2-yl)-3,6-dihydropyrimidin-4-yl)cyclohexyl)oxazol-4-yl)-2-methylpropanoic Acid] the same measures were 18 nM and 5170 nM. For `COC(=O)C1=C(C2CN(C(=O)c3ccccc3)C2)NC(c2nccs2)=NC1c1ccc(F)cc1Cl` (single isomer, unassigned) [II-87-A, Methyl 6-(1-benzoylazetidin-3-yl)-4-(2-chloro-4-fluorophenyl)-2-(thiazol-2-yl)-1,4-dihydropyrimidine-5-carboxylate] the same measures were 4020 nM and 9860 nM.

With `CCOC(=O)C1=C([C@H]2CC[C@H](c3cc(C(=O)O)nn3C)CC2)NC(c2nccs2)=NC1c1ccc(F)c(F)c1Cl` (single isomer, unassigned) [Compound I-35-C, (trans)-5-(4-(6-(2-chloro-3,4-difluorophenyl)-5-(ethoxycarbonyl)-2-(thiazol-2-yl)-3,6-dihydropyrimidin-4-yl)cyclohexyl)-1-methyl-1H-pyrazole-3-carboxylic Acid], the EC50 in data set [1] stood at 63 nM. The compound also had a CC50 at 6 days in data set [2] of 7160 nM. For `CCOC(=O)C1=C([C@H]2CC[C@H](c3cnn(CC(C)(C)C(=O)O)c3)CC2)NC(c2nccs2)=NC1c1ccc(F)c(F)c1Cl` (single isomer, unassigned) [Compound I-37-C, (trans)-3-(4-(4-(6-(2-Chloro-3,4-difluorophenyl)-5-(ethoxycarbonyl)-2-(thiazol-2-yl)-3,6-dihydropyrimidin-4-yl)cyclohexyl)-1H-pyrazol-1-yl)-2,2-dimethylpropanoic Acid] the same measures were 8.3 nM and 2220 nM. For `CCOC(=O)C1=C(C2CCN(c3ncc(C)c(C(=O)O)n3)CC2)NC(c2nccs2)=NC1c1cccc(F)c1Cl` (single isomer, unassigned) [II-22-B, 2-(4-(6-(2-Chloro-3-fluorophenyl)-5-(ethoxycarbonyl)-2-(thiazol-2-yl)-3,6-dihydropyrimidin-4-yl)piperidin-1-yl)-5-methylpyrimidine-4-carboxylic Acid] the same measures were 15 nM and 11200 nM. The corresponding values for `CCOC(=O)C1=C(C2CCN(c3nc(C(=O)O)co3)CC2)NC(c2nccs2)=NC1c1ccc(F)c(F)c1Cl` (single isomer, unassigned) [II-70-B, 2-(4-(6-(2-Chloro-3,4-difluorophenyl)-5-(ethoxycarbonyl)-2-(thiazol-2-yl)-3,6-dihydropyrimidin-4-yl)piperidin-1-yl)oxazole-4-carboxylic Acid] are 10 nM and 11800 nM. On to `CCOC(=O)C1=C([C@H]2CC[C@@H](n3nccc3C(=O)O)CC2)NC(c2nccs2)=NC1c1ccc(F)c(F)c1Cl` (single isomer, unassigned) [Compound I-39-B, (cis)-1-(4-(6-(2-Chloro-3,4-difluorophenyl)-5-(ethoxycarbonyl)-2-(thiazol-2-yl)-3,6-dihydropyrimidin-4-yl)cyclohexyl)-1H-pyrazole-5-carboxylic Acid], for which the EC50 in data set [1] came to 82 nM. Besides, the CC50 at 6 days in data set [2] worked out at 7590 nM.

With `CCOC(=O)C1=C(C2CCN(c3ncc(N(C)C)c(C(=O)O)n3)CC2)NC(c2nccs2)=NC1c1cccc(F)c1Br` (single isomer, unassigned) [II-97-B, 2-(4-(6-(2-Bromo-3-fluorophenyl)-5-(ethoxycarbonyl)-2-(thiazol-2-yl)-3,6-dihydropyrimidin-4-yl)piperidin-1-yl)-5-(dimethylamino)pyrimidine-4-carboxylic Acid], the EC50 in data set [1] was found to be 14 nM. The compound further came in with a CC50 at 6 days in data set [2] of 27600 nM. Take `CCOC(=O)Cc1coc([C@H]2CC[C@H](C3=C(C(=O)OCC)C(c4ccc(F)c(F)c4Cl)N=C(c4nccs4)N3)CC2)n1` (single isomer, unassigned) [VII-23-Y, (trans)-Ethyl 4-(2-chloro-3,4-difluorophenyl)-(4-(4-(2-ethoxy-2-oxoethyl)oxazol-2-yl)cyclohexyl)-2-(thiazol-2-yl)-1,4-dihydropyrimidine-5-carboxylate]: in data set [1], the EC50 was 23 nM.
